Measurements from patent publication US12427346B2, “P62 ligand compound, and composition for preventing, ameliorating or treating proteinopathies comprising the same” (AUTOTAC INC., priority 2018, dated 2025).
Where a name gives a salt, the structure may show the parent alone.

Assays:
LC3 [1] = assay: Autophagy activity in cultured cells by immunoblotting, treatment time (Experimental Example 3); type: cell-based, human; details: HeLa cells; 5 μM for 1, 3, 6, 12, 24, 48 hours or 10 μM for 24 hours; immunoblot, FIG. 4
Experimental: In order to investigate the autophagy activity efficacy by the compounds (Examples 1-25), immunoblotting was performed in the same manner as in Experimental Example 2 using LC3 as a marker. As for the difference, in order to evaluate the treatment time required for activation and the activity retention time, 5 μM of the representative compounds selected among the present compounds (Example 5 (YTK-1005), Example 6 (YTK-1205), Example 7 (YTK-1305), Example 2 (YTK-2205), Example 3 (YTK-3305), Example 14 (YTK-1108), Example 8 (YTK-105), Example 9 (YTK-205)) were treated for 1, 3, 6, 12, 24, 48 hours. On the other hand, 10 μM of the representative compounds selected among the present compounds (Example 10 (YT 5-1), Example 11 (YT 5-2), Example 16 (YT 8-8), Example 15 (YT 8-7), Example 17 (YTK-107), Example 18 (YTK-207), Example 20 (ATB10041), Example 21 (ATB10042), Example 22 (ATB10043), Example 23 (ATB10044), Example 24 (ATB10045), Example 25 (ATB10046)) were treated for 24 hours.

p62 protein = molecular target: T1, p62 protein (Homo sapiens, UniProt Q13501); assay: Oligomerization activity of p62 protein by immunoblotting (Experimental Example 1); type: cell-based; details: HEK293 cell lysate treated with test compounds at room temperature for 2 hours; immunoblot, FIG. 2
T1 construct: endogenous in cells; host or cells: HEK293 (lysate treated with compounds)
T1 sequence (Q13501 whole entry): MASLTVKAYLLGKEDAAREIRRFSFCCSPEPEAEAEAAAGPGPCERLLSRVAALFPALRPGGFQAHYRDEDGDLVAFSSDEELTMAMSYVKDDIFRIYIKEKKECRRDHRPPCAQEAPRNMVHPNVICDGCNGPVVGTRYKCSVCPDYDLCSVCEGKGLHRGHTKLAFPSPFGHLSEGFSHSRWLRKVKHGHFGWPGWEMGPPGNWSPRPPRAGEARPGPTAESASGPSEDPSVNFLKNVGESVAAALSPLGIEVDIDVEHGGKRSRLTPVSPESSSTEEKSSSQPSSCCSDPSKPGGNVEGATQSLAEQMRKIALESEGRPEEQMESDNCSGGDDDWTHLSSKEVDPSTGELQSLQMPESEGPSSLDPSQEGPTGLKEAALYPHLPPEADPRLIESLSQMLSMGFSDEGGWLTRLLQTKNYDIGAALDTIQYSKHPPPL
From the text: In order to evaluate the p62 protein oligomerization activity efficacy by the compounds (Examples 1-25), HEK293 cell line, which is human embryonic kidney-derived cell, was collected. As the representative compounds among the present compounds, the compounds of Examples 1, 2, 3, 5, 6, 7, 8, 9, 12, and 13 (Example 10 (YT-5-1), Example 11 (YT-5-2), Example 12 (YT 5-7), Example 13 (YT 5-8), Example 15 (YT-8-7), Example 16 (YT-8-8), Example 17 (YTK-107), Example 18 ([…]), Example 20 (ATB10041), Example 21 (ATB10042), Example 22 (ATB10043), Example 23 (ATB10044), Example 24 (ATB10045) and Example 25 (ATB10046)) were selected. In order to measure intracellular p62 protein activation and oligomerization according to the treatment with these selected representative compounds, the respective cells were dispensed into a 100 pi dish. The cells were collected after further culturing for 24 hours so that the cells were completely attached to the surface of the plate. 100 ul of lysis buffer (20 mM Tris, pH 7.4), 150 mM NaCl, 1% Triton X-100, 2 mM NaF, 2 mM EDTA, 2 mM beta-glycerophosphate, 5 mM sodium orthovanadate, 1 mM PMSF, leupeptin, aprotinin) were injected into each sample and the cells were lysed. Based on the measured total protein concentration, each sample was treated with test compounds at room temperature for 2 hours, and then a sample buffer was added and allowed to react at 95° C. for 10 minutes. 25 ul was taken from the samples after the reaction, and dispensed into each well of acrylamide gel, and then immunoblotting was performed.

LC3 [2] = assay: Autophagy activity of control compounds by immunoblotting (Experimental Example 4); type: cell-based, human; details: different concentrations and different times; immunoblot, FIG. 5
Experimental: In order to investigate the autophagy activity efficacy of control compounds, immunoblotting was performed in the same manner as in Experimental Example 2 by using LC3 as a marker. As the control compounds, compounds having the following structure were used.

Compound | autophagy activity (level of LC3) (LC3 [1]) | p62 protein oligomerization activity (monomer, oligomers and high-molecular aggregates) (p62 protein) | autophagy activity (level of LC3) of control compounds (LC3 [2])
COc1cc(CNCCO)cc(OCc2ccccc2)c1OCc1ccccc1 [ATB10045, 2-((3,4-bis(benzyloxy)-5-methoxybenzyl)amino)ethan-1-ol] | increasing the autophagy activity | increasing the p62 protein oligomerization activity | 
Oc1ccc(OCCc2ccccc2)c(OCCc2ccccc2)c1 [Example 2202, 3,4-diphenethoxyphenol] |  |  | do not increase autophagy activity
OCCNCc1ccc(OCc2ccccc2)c(OCCc2ccccc2)c1 [YTK-HCl-1205, 2-((4-(benzyloxy)-3-phenethoxybenzyl)amino)ethan-1-ol] | increasing the autophagy activity |  | 
O=Cc1ccc(OCc2ccccc2)c(OCCCCc2ccccc2)c1 [Example 1401, 4-(benzyloxy)-3-(4-phenylbutoxy)benzaldehyde] |  |  | do not increase autophagy activity
OCCCCc1ccc(OCc2ccccc2)c(OCc2ccccc2)c1 [YTK-1105-1, 4-(3,4-bis(benzyloxy)phenyl)butan-1-ol] |  |  | do not increase autophagy activity
O=Cc1ccc(OCCc2ccccc2)c(OCCc2ccccc2)c1 [Example 2201, 3,4-diphenethoxybenzaldehyde] |  |  | do not increase autophagy activity
Oc1ccc(OCc2ccccc2)c(OCCCCc2ccccc2)c1 [Example 1402, 4-(benzyloxy)-3-(4-phenylbutoxy)phenol] |  |  | do not increase autophagy activity
c1ccc(CCOc2cc(OC[C@H]3CO3)ccc2OCc2ccccc2)cc1 [Example 1203, (R)-2-((4-(benzyloxy)-3-phenethoxyphenoxy)methyl)oxirane] |  |  | do not increase autophagy activity
Oc1ccc(OCCCCc2ccccc2)c(OCCCCc2ccccc2)c1 [Example 4402, 3,4-bis(4-phenylbutoxy)phenol] |  |  | do not increase autophagy activity
Oc1ccc(OCc2ccccc2)c(OCCCc2ccccc2)c1 [Example 1302, 4-(benzyloxy)-3-(3-phenylpropoxy)phenol] |  |  | do not increase autophagy activity
O=Cc1ccc(OCc2ccccc2)c(OCCCc2ccccc2)c1 [Example 1301, 4-(benzyloxy)-3-(3-phenylpropoxy)benzaldehyde] |  |  | do not increase autophagy activity
O=C(NCCO)NCc1ccc(OCc2ccccc2)c(OCc2ccccc2)c1 [ATB10041, 1-(3,4-bis(benzyloxy)benzyl)-3-(2-hydroxyethyl)urea] | increasing the autophagy activity | increasing the p62 protein oligomerization activity | 
Oc1ccc(OCc2ccccc2)c(OCCc2ccccc2)c1 [Example 1202, 4-(benzyloxy)-3-phenethoxyphenol] |  |  | do not increase autophagy activity
O=Cc1ccc(OCc2ccccc2)c(OCCc2ccccc2)c1 [Example 1201, 4-(benzyloxy)-3-phenethoxybenzaldehyde] |  |  | do not increase autophagy activity
c1ccc(COc2ccc(OC[C@H]3CO3)cc2OCc2ccccc2)cc1 [Example 1103, (R)-2-((3,4-bis(benzyloxy)phenoxy)methyl)oxirane] |  |  | do not increase autophagy activity
Oc1ccc(OCc2ccccc2)c(OCc2ccccc2)c1 [Example 1102, 3,4-bis(benzyloxy)phenol] |  |  | do not increase autophagy activity
N[C@H](CNCc1ccc(OCc2ccccc2)c(OCc2ccccc2)c1)C(=O)O [ATB10043, (R)-2-amino-3-((3,4-bis(benzyloxy)benzyl)amino)propanoic acid] | increasing the autophagy activity | increasing the p62 protein oligomerization activity | 
O=C(CO)NCc1ccc(OCc2ccccc2)c(OCc2ccccc2)c1 [ATB10042, N-(3,4-bis(benzyloxy)benzyl)-2-hydroxyacetamide] | increasing the autophagy activity | increasing the p62 protein oligomerization activity | 
NC(=O)CNCc1ccc(OCc2ccccc2)c(OCc2ccccc2)c1 [ATB10044, 2-((3,4-bis(benzyloxy)benzyl)amino)acetamide] | increasing the autophagy activity | increasing the p62 protein oligomerization activity | 
OCCNCc1cc(Cl)c(OCc2ccccc2)c(OCc2ccccc2)c1 [ATB10046, 2-((3,4-bis(benzyloxy)-5-chlorobenzyl)amino)ethan-1-ol] | increasing the autophagy activity | increasing the p62 protein oligomerization activity | 
OCCNCCNCc1ccc(OCc2ccccc2)c(OCc2ccccc2)c1 [YTK-HCl-1108, 2-((2-((3,4-bis(benzyloxy)benzyl)amino)ethyl)amino)ethan-1-ol] | increasing the autophagy activity |  | 
O=Cc1ccc(OCc2ccccc2)c(OCc2ccccc2)c1 [Example 1101, 3,4-bis(benzyloxy)benzaldehyde] |  |  | do not increase autophagy activity
OCCNCc1ccc(OCCc2ccccc2)c(OCCc2ccccc2)c1 [YTK-HCl-2205, 2-((3,4-diphenethoxybenzyl)amino)ethan-1-ol] | increasing the autophagy activity |  | 
OCCNCc1ccc(OCc2ccccc2)c(OCCCc2ccccc2)c1 [YTK-HCl-1305, 2-((4-(benzyloxy)-3-(3-phenylpropoxy)benzyl)amino)ethan-1-ol] | increasing the autophagy activity |  | 
OCCNCc1ccc(OCCCc2ccccc2)c(OCCCc2ccccc2)c1 [YTK-HCl-3305, 2-((3,4-bis(3-phenylpropoxy)benzyl)amino)ethan-1-ol] | increasing the autophagy activity |  | 
